According to article PMC9532703, “A novel small molecule RK-019 inhibits FGFR2-amplification gastric cancer cell proliferation and induces apoptosis in vitro and in vivo” (Frontiers in Pharmacology, 2022):

Legend:
Test in all cases: Kinase selectivity panel
Assay type in all cases: biochemical
[1] = biological target: T1, ALK1(h) (Homo sapiens, UniProt P37023); conditions: read-out: Inhibition(%) @ 1 µM RK-019
T1 construct: purchased Eurofins Discovery Services (KinaseProfiler)
Summary of the method: (§1)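 Recombinant human kinase incubated with 1 µM compound; ATP-site competition binding quantified in vitro as inhibition ratio.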

[2] = biological target: T2, ALK4(h) (Homo sapiens, UniProt P36896); conditions: read-out: Inhibition(%) @ 1 µM RK-019
T2 construct: purchased Eurofins Discovery Services (KinaseProfiler)
Summary of the method: as §1

[3] = biological target: T3, Arg(m) (Mus musculus, UniProt Q4JIM5); conditions: read-out: Inhibition(%) @ 1 µM RK-019
T3 construct: purchased Eurofins Discovery Services (KinaseProfiler)

[4] = biological target: T4, Aurora-A(h) (Homo sapiens, UniProt O14965); conditions: read-out: Inhibition(%) @ 1 µM RK-019
T4 construct: purchased Eurofins Discovery Services (KinaseProfiler)
Summary of the method: as §1

[5] = biological target: T5, B-Raf(h) (Homo sapiens, UniProt P15056); conditions: read-out: Inhibition(%) @ 1 µM RK-019
T5 construct: purchased Eurofins Discovery Services (KinaseProfiler)
Summary of the method: as §1

[6] = biological target: T6, BIKe(h) (Homo sapiens, UniProt Q9NSY1); conditions: read-out: Inhibition(%) @ 1 µM RK-019
T6 construct: purchased Eurofins Discovery Services (KinaseProfiler)
Summary of the method: as §1

[7] = biological target: T7, CDK3/cyclinE(h) (Homo sapiens, UniProt Q00526); conditions: read-out: Inhibition(%) @ 1 µM RK-019
T7 construct: purchased Eurofins Discovery Services (KinaseProfiler)
Summary of the method: as §1

[8] = biological target: T8, CDKL2(h) (Homo sapiens, UniProt Q92772); conditions: read-out: Inhibition(%) @ 1 µM RK-019
T8 construct: purchased Eurofins Discovery Services (KinaseProfiler)
Summary of the method: as §1

[9] = biological target: T9, CK1γ1(h) (Homo sapiens, UniProt Q9HCP0); conditions: read-out: Inhibition(%) @ 1 µM RK-019
T9 construct: purchased Eurofins Discovery Services (KinaseProfiler)
Summary of the method: as §1

[10] = biological target: T10, CaMKIγ(h) (Homo sapiens, UniProt Q96NX5); conditions: read-out: Inhibition(%) @ 1 µM RK-019
T10 construct: purchased Eurofins Discovery Services (KinaseProfiler)
Summary of the method: as §1

[11] = biological target: T11, DAPK1(h) (Homo sapiens, UniProt P53355); conditions: read-out: Inhibition(%) @ 1 µM RK-019
T11 construct: purchased Eurofins Discovery Services (KinaseProfiler)
Summary of the method: as §1

[12] = biological target: T12, EGFR(h) (Homo sapiens, UniProt P00533); conditions: read-out: Inhibition(%) @ 1 µM RK-019
T12 construct: purchased Eurofins Discovery Services (KinaseProfiler)
Summary of the method: as §1

[13] = biological target: T13, GRK5(h) (Homo sapiens, UniProt P34947); conditions: read-out: Inhibition(%) @ 1 µM RK-019
T13 construct: purchased Eurofins Discovery Services (KinaseProfiler)
Summary of the method: as §1

[14] = biological target: T14, HPK1(h) (Homo sapiens, UniProt Q92918); conditions: read-out: Inhibition(%) @ 1 µM RK-019
T14 construct: purchased Eurofins Discovery Services (KinaseProfiler)
Summary of the method: as §1

[15] = biological target: T15, HRI(h) (Homo sapiens, UniProt Q9BQI3); conditions: read-out: Inhibition(%) @ 1 µM RK-019
T15 construct: purchased Eurofins Discovery Services (KinaseProfiler)
Summary of the method: as §1

[16] = biological target: T16, JNK2α2(h) (Homo sapiens, UniProt P45984); conditions: read-out: Inhibition(%) @ 1 µM RK-019
T16 construct: purchased Eurofins Discovery Services (KinaseProfiler)
Summary of the method: as §1

[17] = biological target: T17, JNK3(h) (Homo sapiens, UniProt P53779); conditions: read-out: Inhibition(%) @ 1 µM RK-019
T17 construct: purchased Eurofins Discovery Services (KinaseProfiler)
Summary of the method: as §1

[18] = biological target: T18, Lck(h) activated (Homo sapiens, UniProt P06239); conditions: read-out: Inhibition(%) @ 1 µM RK-019
T18 construct: purchased Eurofins Discovery Services (KinaseProfiler)
Summary of the method: as §1

[19] = biological target: T19, MARK4(h) (Homo sapiens, UniProt Q96L34); conditions: read-out: Inhibition(%) @ 1 µM RK-019
T19 construct: purchased Eurofins Discovery Services (KinaseProfiler)
Summary of the method: as §1

[20] = biological target: T20, MYLK2(h) (Homo sapiens, UniProt Q9H1R3); conditions: read-out: Inhibition(%) @ 1 µM RK-019
T20 construct: purchased Eurofins Discovery Services (KinaseProfiler)
Summary of the method: as §1

[21] = biological target: T21, NIM1(h) (Homo sapiens, UniProt Q8IY84); conditions: read-out: Inhibition(%) @ 1 µM RK-019
T21 construct: purchased Eurofins Discovery Services (KinaseProfiler)
Summary of the method: as §1

[22] = biological target: T22, PDGFRα(D842V)(h) (Homo sapiens, UniProt P16234, D842V); conditions: read-out: Inhibition(%) @ 1 µM RK-019
T22 construct: purchased Eurofins Discovery Services (KinaseProfiler)
Summary of the method: as §1

[23] = biological target: T23, PDHK2(h) (Homo sapiens, UniProt Q15119); conditions: read-out: Inhibition(%) @ 1 µM RK-019
T23 construct: purchased Eurofins Discovery Services (KinaseProfiler)
Summary of the method: as §1

[24] = biological target: T24, PI3 Kinase (p110d/p85a)(m) (Mus musculus, UniProt O35904); conditions: read-out: Inhibition(%) @ 1 µM RK-019
T24 construct: purchased Eurofins Discovery Services (KinaseProfiler)

[25] = biological target: T25, PKD3(h) (Homo sapiens, UniProt O94806); conditions: read-out: Inhibition(%) @ 1 µM RK-019
T25 construct: purchased Eurofins Discovery Services (KinaseProfiler)
Summary of the method: as §1

[26] = biological target: T26, PTK5(h) (Homo sapiens, UniProt P42685); conditions: read-out: Inhibition(%) @ 1 µM RK-019
T26 construct: purchased Eurofins Discovery Services (KinaseProfiler)
Summary of the method: as §1

[27] = biological target: T27, Pim-2(h) (Homo sapiens, UniProt Q9P1W9); conditions: read-out: Inhibition(%) @ 1 µM RK-019
T27 construct: purchased Eurofins Discovery Services (KinaseProfiler)
Summary of the method: as §1

[28] = biological target: T28, Pim-3(h) (Homo sapiens, UniProt Q86V86); conditions: read-out: Inhibition(%) @ 1 µM RK-019
T28 construct: purchased Eurofins Discovery Services (KinaseProfiler)
Summary of the method: as §1

[29] = biological target: T29, Plk3(h) (Homo sapiens, UniProt Q9H4B4); conditions: read-out: Inhibition(%) @ 1 µM RK-019
T29 construct: purchased Eurofins Discovery Services (KinaseProfiler)
Summary of the method: as §1

[30] = biological target: T30, Ret(h) (Homo sapiens, UniProt P07949)
T30 construct: purchased Eurofins Discovery Services (KinaseProfiler)
Summary of the method: as §1

[31] = biological target: T31, Ron(h) (Homo sapiens, UniProt Q04912); conditions: read-out: Inhibition(%) @ 1 µM RK-019
T31 construct: purchased Eurofins Discovery Services (KinaseProfiler)
Summary of the method: as §1

[32] = biological target: T32, SAPK2a(h) (Homo sapiens, UniProt Q16539); conditions: read-out: Inhibition(%) @ 1 µM RK-019
T32 construct: purchased Eurofins Discovery Services (KinaseProfiler)
Summary of the method: as §1

[33] = biological target: T33, STK25(h) (Homo sapiens, UniProt O00506); conditions: read-out: Inhibition(%) @ 1 µM RK-019
T33 construct: purchased Eurofins Discovery Services (KinaseProfiler)
Summary of the method: as §1

[34] = biological target: T34, STK32C(h) (Homo sapiens, UniProt Q86UX6); conditions: read-out: Inhibition(%) @ 1 µM RK-019
T34 construct: purchased Eurofins Discovery Services (KinaseProfiler)
Summary of the method: as §1

[35] = biological target: T35, TGFBR1(h) (Homo sapiens, UniProt P36897); conditions: read-out: Inhibition(%) @ 1 µM RK-019
T35 construct: purchased Eurofins Discovery Services (KinaseProfiler)
Summary of the method: as §1

[36] = biological target: T36, TSSK1(h) (Homo sapiens, UniProt Q9BXA7); conditions: read-out: Inhibition(%) @ 1 µM RK-019
T36 construct: purchased Eurofins Discovery Services (KinaseProfiler)
Summary of the method: as §1

[37] = biological target: T37, Tec(h) activated (Homo sapiens, UniProt P42680); conditions: read-out: Inhibition(%) @ 1 µM RK-019
T37 construct: purchased Eurofins Discovery Services (KinaseProfiler)
Summary of the method: as §1

T30 sequence (P07949 29-1114): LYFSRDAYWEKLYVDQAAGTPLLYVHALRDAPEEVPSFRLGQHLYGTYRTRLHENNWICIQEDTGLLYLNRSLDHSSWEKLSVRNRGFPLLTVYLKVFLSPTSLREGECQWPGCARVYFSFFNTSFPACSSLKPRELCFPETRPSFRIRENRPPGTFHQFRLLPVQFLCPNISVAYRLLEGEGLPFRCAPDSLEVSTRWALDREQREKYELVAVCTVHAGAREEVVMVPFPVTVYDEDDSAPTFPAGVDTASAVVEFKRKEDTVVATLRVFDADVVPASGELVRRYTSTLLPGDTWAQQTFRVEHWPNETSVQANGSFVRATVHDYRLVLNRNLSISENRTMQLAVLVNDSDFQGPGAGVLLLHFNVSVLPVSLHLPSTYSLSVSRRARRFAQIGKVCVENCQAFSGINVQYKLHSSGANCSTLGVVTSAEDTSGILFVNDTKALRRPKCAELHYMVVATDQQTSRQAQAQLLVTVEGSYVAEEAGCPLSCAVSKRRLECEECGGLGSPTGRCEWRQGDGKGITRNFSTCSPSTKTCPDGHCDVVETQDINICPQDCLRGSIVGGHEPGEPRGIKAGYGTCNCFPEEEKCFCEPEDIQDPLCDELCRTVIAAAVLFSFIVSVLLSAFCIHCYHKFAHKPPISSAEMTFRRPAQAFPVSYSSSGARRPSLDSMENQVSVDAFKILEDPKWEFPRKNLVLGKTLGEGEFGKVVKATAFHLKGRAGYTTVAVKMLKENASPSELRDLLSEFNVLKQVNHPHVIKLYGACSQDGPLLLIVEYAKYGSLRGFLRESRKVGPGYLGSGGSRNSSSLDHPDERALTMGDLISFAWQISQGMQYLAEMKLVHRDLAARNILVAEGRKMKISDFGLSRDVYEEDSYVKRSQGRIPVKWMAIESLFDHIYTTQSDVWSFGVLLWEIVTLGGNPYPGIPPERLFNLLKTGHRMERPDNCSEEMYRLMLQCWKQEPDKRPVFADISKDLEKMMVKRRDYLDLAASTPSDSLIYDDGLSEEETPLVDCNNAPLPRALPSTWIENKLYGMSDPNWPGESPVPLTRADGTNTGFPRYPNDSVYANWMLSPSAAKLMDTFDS
T25 sequence (O94806 whole entry): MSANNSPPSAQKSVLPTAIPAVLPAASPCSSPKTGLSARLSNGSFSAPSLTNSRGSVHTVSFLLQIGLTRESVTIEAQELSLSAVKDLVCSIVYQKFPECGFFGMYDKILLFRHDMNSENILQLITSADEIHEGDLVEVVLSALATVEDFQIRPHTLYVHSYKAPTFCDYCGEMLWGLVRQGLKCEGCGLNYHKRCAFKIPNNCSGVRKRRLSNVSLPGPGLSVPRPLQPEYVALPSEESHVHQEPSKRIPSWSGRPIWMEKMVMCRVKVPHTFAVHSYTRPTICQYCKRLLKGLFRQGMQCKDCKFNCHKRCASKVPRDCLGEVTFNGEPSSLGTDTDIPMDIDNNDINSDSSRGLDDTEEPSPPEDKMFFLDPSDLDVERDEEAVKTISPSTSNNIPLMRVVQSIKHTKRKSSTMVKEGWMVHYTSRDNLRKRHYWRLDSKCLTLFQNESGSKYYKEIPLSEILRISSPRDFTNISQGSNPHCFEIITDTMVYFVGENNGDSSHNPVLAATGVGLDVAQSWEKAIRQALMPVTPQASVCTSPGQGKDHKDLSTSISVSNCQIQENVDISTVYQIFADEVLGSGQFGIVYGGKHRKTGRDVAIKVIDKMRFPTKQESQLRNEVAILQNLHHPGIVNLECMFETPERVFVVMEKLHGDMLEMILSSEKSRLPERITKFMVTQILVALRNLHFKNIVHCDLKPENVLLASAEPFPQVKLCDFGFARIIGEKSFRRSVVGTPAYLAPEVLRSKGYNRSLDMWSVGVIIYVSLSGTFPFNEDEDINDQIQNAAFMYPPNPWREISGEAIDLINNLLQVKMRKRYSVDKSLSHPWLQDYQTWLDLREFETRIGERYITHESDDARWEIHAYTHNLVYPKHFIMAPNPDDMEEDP
T4 sequence (O14965 whole entry): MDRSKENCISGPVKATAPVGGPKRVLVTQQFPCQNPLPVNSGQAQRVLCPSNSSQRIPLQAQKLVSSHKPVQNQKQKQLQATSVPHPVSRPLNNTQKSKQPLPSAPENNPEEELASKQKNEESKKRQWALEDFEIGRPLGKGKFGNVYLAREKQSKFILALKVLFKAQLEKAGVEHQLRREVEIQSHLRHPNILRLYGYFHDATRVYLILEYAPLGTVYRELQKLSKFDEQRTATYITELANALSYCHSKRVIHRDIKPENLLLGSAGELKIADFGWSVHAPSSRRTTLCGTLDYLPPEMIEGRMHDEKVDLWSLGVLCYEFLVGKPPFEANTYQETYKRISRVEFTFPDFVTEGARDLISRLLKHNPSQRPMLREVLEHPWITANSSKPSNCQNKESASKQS
T22 sequence (P16234 24-1089 D842V): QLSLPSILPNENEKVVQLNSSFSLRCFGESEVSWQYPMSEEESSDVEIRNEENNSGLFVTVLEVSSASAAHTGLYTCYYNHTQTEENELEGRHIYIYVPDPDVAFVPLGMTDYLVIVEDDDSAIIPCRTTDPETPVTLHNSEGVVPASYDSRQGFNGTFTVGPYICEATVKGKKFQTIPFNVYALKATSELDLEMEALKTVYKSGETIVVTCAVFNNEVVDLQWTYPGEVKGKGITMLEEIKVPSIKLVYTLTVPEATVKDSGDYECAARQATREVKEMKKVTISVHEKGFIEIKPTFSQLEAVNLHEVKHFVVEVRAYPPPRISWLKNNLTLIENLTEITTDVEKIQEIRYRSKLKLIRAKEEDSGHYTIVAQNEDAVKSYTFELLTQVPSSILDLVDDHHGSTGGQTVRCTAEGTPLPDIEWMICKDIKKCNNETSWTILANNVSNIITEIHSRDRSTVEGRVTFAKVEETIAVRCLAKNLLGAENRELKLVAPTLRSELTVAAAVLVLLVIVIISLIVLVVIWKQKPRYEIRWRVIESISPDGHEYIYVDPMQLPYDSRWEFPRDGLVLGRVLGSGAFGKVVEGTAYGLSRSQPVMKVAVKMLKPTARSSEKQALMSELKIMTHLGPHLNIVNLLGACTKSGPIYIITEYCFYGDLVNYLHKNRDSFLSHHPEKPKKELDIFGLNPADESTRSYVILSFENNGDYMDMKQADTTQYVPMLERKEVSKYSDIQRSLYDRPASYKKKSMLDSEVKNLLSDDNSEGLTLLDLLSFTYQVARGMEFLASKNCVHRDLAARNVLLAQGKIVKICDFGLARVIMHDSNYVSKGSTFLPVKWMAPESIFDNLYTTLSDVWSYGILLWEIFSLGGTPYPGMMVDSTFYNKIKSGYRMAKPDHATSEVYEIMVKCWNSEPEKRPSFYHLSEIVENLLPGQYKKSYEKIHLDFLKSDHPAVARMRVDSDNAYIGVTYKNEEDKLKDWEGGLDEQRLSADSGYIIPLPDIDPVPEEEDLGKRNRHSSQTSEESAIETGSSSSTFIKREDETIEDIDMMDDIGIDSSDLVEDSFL
T5 sequence (P15056 whole entry): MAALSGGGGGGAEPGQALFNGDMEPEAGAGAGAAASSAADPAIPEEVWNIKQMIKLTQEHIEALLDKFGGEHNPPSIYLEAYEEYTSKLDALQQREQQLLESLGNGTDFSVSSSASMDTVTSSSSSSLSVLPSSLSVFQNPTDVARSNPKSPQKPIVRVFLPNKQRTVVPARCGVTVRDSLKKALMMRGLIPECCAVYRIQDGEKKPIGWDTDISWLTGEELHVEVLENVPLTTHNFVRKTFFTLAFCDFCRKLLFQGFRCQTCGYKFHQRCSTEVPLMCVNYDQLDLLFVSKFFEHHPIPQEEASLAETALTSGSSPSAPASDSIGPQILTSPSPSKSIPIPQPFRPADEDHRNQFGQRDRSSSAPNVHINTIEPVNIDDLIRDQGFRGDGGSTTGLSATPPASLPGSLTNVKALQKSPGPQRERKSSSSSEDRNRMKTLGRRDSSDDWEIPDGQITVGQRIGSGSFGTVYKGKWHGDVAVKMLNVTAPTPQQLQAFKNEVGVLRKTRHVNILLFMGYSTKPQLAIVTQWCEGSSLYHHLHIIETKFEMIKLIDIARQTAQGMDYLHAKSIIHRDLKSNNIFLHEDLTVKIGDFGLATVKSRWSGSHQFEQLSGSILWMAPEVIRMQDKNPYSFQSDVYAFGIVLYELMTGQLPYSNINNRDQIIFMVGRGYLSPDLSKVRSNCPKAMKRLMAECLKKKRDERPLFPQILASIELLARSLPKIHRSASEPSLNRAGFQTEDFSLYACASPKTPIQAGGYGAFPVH
T26 sequence (P42685 whole entry): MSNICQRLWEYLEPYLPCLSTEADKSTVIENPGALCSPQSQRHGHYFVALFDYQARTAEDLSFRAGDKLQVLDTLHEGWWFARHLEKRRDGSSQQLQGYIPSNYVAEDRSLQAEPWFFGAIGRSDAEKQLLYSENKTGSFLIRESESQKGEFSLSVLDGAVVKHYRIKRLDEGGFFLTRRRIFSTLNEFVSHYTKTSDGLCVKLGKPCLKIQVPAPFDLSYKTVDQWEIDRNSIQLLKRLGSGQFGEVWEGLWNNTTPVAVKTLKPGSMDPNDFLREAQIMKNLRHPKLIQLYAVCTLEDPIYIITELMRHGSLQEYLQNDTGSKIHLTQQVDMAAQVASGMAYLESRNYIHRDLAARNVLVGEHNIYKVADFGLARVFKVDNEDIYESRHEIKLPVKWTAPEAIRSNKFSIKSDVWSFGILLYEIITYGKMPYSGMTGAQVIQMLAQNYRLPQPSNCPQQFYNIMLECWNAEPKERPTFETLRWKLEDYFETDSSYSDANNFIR
T27 sequence (Q9P1W9 whole entry): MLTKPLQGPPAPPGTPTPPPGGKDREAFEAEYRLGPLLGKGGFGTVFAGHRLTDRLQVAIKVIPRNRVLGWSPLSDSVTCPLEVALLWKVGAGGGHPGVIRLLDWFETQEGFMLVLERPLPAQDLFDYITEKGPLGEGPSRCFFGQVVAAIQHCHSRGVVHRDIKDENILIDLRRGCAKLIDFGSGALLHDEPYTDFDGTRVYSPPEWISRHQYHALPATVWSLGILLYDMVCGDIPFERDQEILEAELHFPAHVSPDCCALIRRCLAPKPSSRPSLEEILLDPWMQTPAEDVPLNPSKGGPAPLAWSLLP

`COc1cc(OC)cc(N(CCN[C@H](C)CO)c2ccc3ncc(-c4cnn(C)c4)c(=O)n3c2)c1` [RK-019, (R)-7-((3,5-dimethoxyphenyl) (2-((1-hydroxypropan-2-yl)amino)ethyl)amino)-3-(1-methyl-1H-pyrazol-4-yl)-4H-pyrido [1,2-a]pyrimidin-4-one] showed an activity at 1 µM [1] of 98%, an activity at 1 µM [2] of 91% and an activity at 1 µM [3] of 88%. For the same compound, the activity at 1 µM [4] was 133%, the activity at 1 µM [5] was 124% and the activity at 1 µM [6] was 93%. For the same compound, the activity at 1 µM [7] was 90%, the activity at 1 µM [8] was 110% and the activity at 1 µM [9] was 92%. For the same compound, the activity at 1 µM [10] was 93%, the activity at 1 µM [11] was 100% and the activity at 1 µM [12] was 119%. The activity at 1 µM [13] was 135%, the activity at 1 µM [14] was 95% and the activity at 1 µM [15] was 100%. The activity at 1 µM [16] was 99%, the activity at 1 µM [17] was 91% and the activity at 1 µM [18] was 36%. It also gave an activity at 1 µM [19] of 106%, an activity at 1 µM [20] of 88% and an activity at 1 µM [21] of 103%. For the same compound, the activity at 1 µM [22] was 22%, the activity at 1 µM [23] was 104% and the activity at 1 µM [24] was 98%. For the same compound, the activity at 1 µM [25] was 99%, the activity at 1 µM [26] was 107% and the activity at 1 µM [27] was 98%. The activity at 1 µM [28] was 114%, the activity at 1 µM [29] was 101% and the inhibition at 1 µM ([30]; RET, 1 µM, read-out: inhibition (hit in panel)) was > 90%. For the same compound, the activity at 1 µM ([30]; Ret(h), read-out: Inhibition(%) @ 1 µM RK-019) was 5%, the activity at 1 µM [31] was 124% and the activity at 1 µM [32] was 100%. It also gave an activity at 1 µM [33] of 66%, an activity at 1 µM [34] of 72% and an activity at 1 µM [35] of 83%. It also gave an activity at 1 µM [36] of 109% and an activity at 1 µM [37] of 96%.
